# Results published in paper PMC10535864, “Novel Aminopyrimidine-2,4-diones, 2-Thiopyrimidine-4-ones, and 6-Arylpteridines as Dual-Target Inhibitors of BRD4/PLK1: Design, Synthesis, Cytotoxicity, and Computational Studies” (Pharmaceuticals, 2023).
# Several values for one entry are separate records, joined by “and”; a condition that tells them apart may be missing. Equal entries are not always repeated.
# Key:
# Format in all cases: cell-based
# [1] = test system: caspase-3 gene in MDA-MB-231 cells; assay: RT-PCR gene expression, caspase-3; conditions: 48 h treatment, control = 1
# Method: (§1) As well, there was an apparent increase in caspase-3, showing 3.9-fold more expression than in control cells.
# (§2) Fluorometric analysis was used to gauge the level of these genes’ expression. The procedure for the used kit was carried out in accordance with the manufacturer’s instructions, which are detailed in the Supplementary file. […]
# (§3) […] at pH 7.4). The flow cytometer was then used to examine the cells […]
# (§4) 1.4.Estimation of apoptotic and anti-apoptotic gene markers […]
# (§5) such as Bax and caspase-3, as well as anti-apoptotic genes such as Bcl-2, was studied using the BIORAD iScriptTM One-Step RT-PCR kit with SYBR® Green. MDA-MB-231 cells were cultured before being treated for 48 hours […]
# (§6) Fluorometric analysis was used to gauge the level of these genes' expression. The procedure for the used kit was carried out in accordance with the manufacturer's instructions, which are detailed as follows:
# (§7) 1.4.1. RNA isolation and reverse transcription m RNA isolation iscarried out using an RNeasy extraction kit,up to 1 x 10^7 cells, depending on the cell line. Cells are disrupted in RNeasy Lysis Buffer (RLT buffer), homogenized, then ethanol is added to the lysate, creating conditions that promote selective binding of RNA to the RNeasy membrane. […]
# MDA-MB-231 cells [2] = assay: Cell cycle analysis, propidium iodide flow cytometry; conditions: treated at IC50 concentration, 48 h
# Source text: (§8) The results are indicated as a dot plot graph with four quadrant images (Figure 5B). […] However, both compounds also raised the necrotic percent by 1.8- and 2.8-fold, respectively, compared to non-treated cells. Overall, these findings implied that compound 7 could exert anticancer activity by producing cell cycle arrest at the G2/M phase and inducing apoptosis.
# (§9) An Epics XL-MCL™ Flow Cytometer and Flowing software 2012 were used to count and analyze stained cells. The Supplementary file contains detailed descriptions of the flow cytometric analysis of cell-cycle distribution and cellular apoptosis. […]
# (§10) 1.3.Cell cycle and apoptosis screening […]
# (§11) investigated using an Ab-139418 propidium iodide flow cytometry kit and an Annexin-V assay and biparametric cytofluorimetric analysis, respectively, as instructed by the manufacturer. IC50s of both 7 and […]
# Cytometer and Flowing software were used to count and analyze stained cells. The Supplementary file contains detailed descriptions of the flow cytometric analysis of cell-cycle distribution and cellular apoptosis.
# 1.3.1. Cell cycle analysis […]
# a six-well plate containing MDA-MB-231 breast cancer cells was seeded with 1 X 10^5 cells per well and then […]
# Following that, cells were gathered and fixed in ice-cold 70% ethanol at 4 °C for 12 hours. The cells were then rinsed with cold Phosphate Buffer Saline (PBS) and incubated for 30 minutes at 37°C in 0.5 mL of PBS after the ethanol was removed. Propidium iodide was used to stain the cells for 30 min while they were in the dark. DNA content was determined using a flow cytometer. […]
# [3] = test system: Bcl-2 gene in MDA-MB-231 cells; assay: RT-PCR gene expression, Bcl-2; conditions: 48 h treatment, control = 1
# Method: as §1, §2, §3, §4, §5, §6, §7
# [4] = test system: BAX gene in MDA-MB-231 cells; assay: RT-PCR gene expression, BAX; conditions: 48 h treatment, control = 1
# Method: as §1, §2, §3, §4, §5, §6, §7
# MDA-MB-231 cells [5] = assay: Apoptosis screening, annexin V-FITC/PI flow cytometry; conditions: compared to non-treated control MDA-MB-231 cells
# Source text: as §8, §9, §10, §11
# Cytometer and Flowing software were used to count and analyze stained cells. The Supplementary file contains detailed descriptions of the flow cytometric analysis of cell-cycle distribution and cellular apoptosis. […]
# 1.3.2. Apoptosis screening […]
# plate received 1 X 105 conc. breast cancer (MDA-MB-231) cells that were then incubated for 24 hours. The cells […]
# with PBS, and stained for 15 min at room temperature in the dark with annexin V-FITC and PI in binding buffer (10 […]
# µM HEPES, 140 µM NaCl, and 2.5 µM CaCl2 at pH 7.4). […]
# high-quality RNA iseluted in RNase-free water.
# 1.4.2. Master mix preparation
# All the following reagents were mixed together to give a totalvolume (50 μL). 2X SYBR® Green RT-PCR reaction mixture (25 μL), forward primer (10 μM) (1.5 μL), reverse primer (10 μM) (1.5 μL), nuclease-free H2O (11 μL), RNA template (1 pg to 100 ng totalRNA) (10 μL) and iScript reverse transcriptase for One-Step RT-PCR (1 μL).
# 1.4.3. Amplification protocol
# Incubate complete reaction mixture in a real-time thermal detection system (Rotorgene) as follows: cDNA synthesis:
# 10 min at 50 °C, iScript reverse transcriptase inactivation: 5 min at 95 °C, polymerase chain reaction (PCR) cycling and detection (30–45 cycles): 10 s at 95 °C and 30 s at 55 °C to 60 °C (data collection step) and melt curve analysis:
# 1 min at95 °C and 1 min at55 °C and 10 s at55 °C (80 cycles, increasing each by 0.5 °C each cycle).
smiles,measurement,setting,value
"Cn1c(SCC(=O)c2ccccc2)nc(=O)c(/N=C(/CBr)c2ccccc2)c1N [Compound 7, (E)-6-Amino-5-((2-bromo-1-phenylethylidene)amino)-1-methyl-2-((2-oxo-2-phenylethyl)thio)pyrimidin-4(1H)-one]",Gene expression Caspase-3 (apoptotic gene),[1],3.9 fold and 3.904 fold
same,DNA content % at cell cycle phase %G2/M,MDA-MB-231 cells [2]; control 9.19%,22.36%
same,DNA content % at cell cycle phase %S,MDA-MB-231 cells [2]; control 29.53%,28.02%
same,DNA content % at cell cycle phase %G0/G1,MDA-MB-231 cells [2]; control 61.28%,49.62%
same,Gene expression Bcl-2 (anti-apoptotic gene),[3],0.30 fold and 0.301 fold
same,Gene expression BAX (apoptotic gene),[4],7.3 fold and 7.325 fold
same,increase in early apoptosis,MDA-MB-231 cells [5],58.8 fold
same,increase in total apoptosis,MDA-MB-231 cells [5],19.3 fold
same,rise of necrotic percent,MDA-MB-231 cells [5],1.8 fold
